Assay results reported in patent US12358915B2, “METTL3 inhibitory compounds” (STORM THERAPEUTICS LTD., priority 2019, dated 2025).
Like-named read-outs stand apart in the source and are kept apart here.

Molecular target: T1, METTL3/14 (Homo sapiens, UniProt Q86U44)
T1 construct: The enzyme used was full-length his-tagged METTL3; His; made in house
Test: METTL3/14 methyltransferase assay (METTL3_14 RFMS, RapidFire mass spectrometry);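 also: recombinant His-tagged METTL3 with FLAG-tagged METTL14 from baculovirus, SAH product quantified by mass spectrometry against isotope-labelled internal standards, 60 min at room temperature, scaled between no-RNA and DMSO-only wells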
Format: biochemical
Conditions: 5 nM METTL3/14, 0.2 μM RNA substrate, 0.5 μM SAM, lower limit of the assay IC50=5 nM, read-out: METTL3_14 RFMS IC50

T1 sequence (Q86U44 whole entry): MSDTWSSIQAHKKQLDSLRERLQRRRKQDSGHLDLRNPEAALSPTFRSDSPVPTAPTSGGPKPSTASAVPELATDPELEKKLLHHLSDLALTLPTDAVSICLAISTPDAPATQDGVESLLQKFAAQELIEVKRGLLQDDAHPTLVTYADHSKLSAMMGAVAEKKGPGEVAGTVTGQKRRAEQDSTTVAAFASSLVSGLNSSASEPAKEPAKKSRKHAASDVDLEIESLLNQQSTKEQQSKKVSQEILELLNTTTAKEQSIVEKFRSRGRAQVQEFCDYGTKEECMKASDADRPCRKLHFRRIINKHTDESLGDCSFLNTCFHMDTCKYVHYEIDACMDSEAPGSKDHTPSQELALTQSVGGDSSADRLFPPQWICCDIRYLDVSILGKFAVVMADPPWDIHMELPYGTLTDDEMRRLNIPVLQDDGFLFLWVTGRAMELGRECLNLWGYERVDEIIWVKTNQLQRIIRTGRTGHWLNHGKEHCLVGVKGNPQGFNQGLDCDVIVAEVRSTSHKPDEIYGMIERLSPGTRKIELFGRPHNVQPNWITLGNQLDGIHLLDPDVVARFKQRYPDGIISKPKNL
T1 sequence (Q9HCE5 whole entry partner): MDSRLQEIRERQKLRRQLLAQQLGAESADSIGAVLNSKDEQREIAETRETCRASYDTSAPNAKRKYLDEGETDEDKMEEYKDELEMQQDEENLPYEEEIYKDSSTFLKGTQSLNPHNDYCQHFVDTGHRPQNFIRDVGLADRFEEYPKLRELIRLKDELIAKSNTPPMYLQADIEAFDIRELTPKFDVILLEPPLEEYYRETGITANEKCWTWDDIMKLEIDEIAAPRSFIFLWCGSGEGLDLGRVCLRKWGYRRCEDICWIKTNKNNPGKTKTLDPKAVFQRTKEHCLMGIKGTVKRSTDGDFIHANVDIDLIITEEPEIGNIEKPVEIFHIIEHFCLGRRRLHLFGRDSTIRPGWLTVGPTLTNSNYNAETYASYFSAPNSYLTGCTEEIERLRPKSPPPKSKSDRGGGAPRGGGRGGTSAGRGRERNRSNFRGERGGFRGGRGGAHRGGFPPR

IC50 (Compounds 63-265) | IC50 (Compounds 1-62) | Structure (SMILES) | further results
1870 nM |  | O=C(NCc1cn2ccc(CNCC3CC3)cc2n1)c1cc(=O)n2ccccc2n1 [Compound 224, N-[(7-{[(cyclopropylmethyl)amino]methyl}imidazo[1,2-a]pyridin-2-yl)methyl]-4-oxo-4H-pyrido[1,2-a]pyrimidine-2-carboxamide] | 
 |  | O=C(NCc1cn2cc(CNCC3CC4(CCC4)C3)ccc2n1)c1cc(=O)n2ccccc2n1 [Compound 277, 4-oxo-N-[[6-[(spiro[3.3]heptan-2-ylmethylamino)methyl]imidazo[1,2-a]pyridin-2-yl]methyl]pyrido[1,2-a]pyrimidine-2-carboxamide] | IC50 (Compounds 266-351): 76.3 nM
 | 1470 nM | NCc1ccc2nc(CNC(=O)c3cccc4[nH]ncc34)cn2c1 [Compound 39, N-{[6-(aminomethyl)imidazo[1,2-a]pyridin-2-yl]methyl}-1H-indazole-4-carboxamide] | 
 | 543 nM | COc1ccn2cc(CNC(=O)c3cc(=O)n4ccccc4n3)nc2c1 [Compound 25, N-({7-methoxyimidazo[1,2-a]pyridin-2-yl}methyl)-4-oxo-4H-pyrido[1,2-a]pyrimidine-2-carboxamide] | 
99 nM |  | CN(Cc1ccc2nc(CNC(=O)c3cc(=O)n4ccccc4n3)cn2c1)CC1CC1 [Compound 136, N-[(6-{[(cyclopropyl-methyl)(methyl)amino]methyl}imidazo[1,2-a]pyridin-2-yl)methyl]-4-oxo-4H-pyrido[1,2-a]pyrimidine-2-carboxamide] | 
 | 1220 nM | O=C(NCc1cn2cc(CNCC(F)(F)F)ccc2n1)c1cc(=O)n2ccccc2n1 [Compound 51, 4-oxo-N-[(6-{[(2,2,2-trifluoroethyl)amino]methyl}imidazo[1,2-a]pyridin-2-yl)methyl]-4H-pyrido[1,2-a]pyrimidine-2-carboxamide] | 
 | 6070 nM | O=C(NCc1cn2cc(Cl)ccc2n1)c1cccc2[nH]ncc12 [Compound 4, N-({6-chloroimidazo[1,2-a]pyridin-2-yl}methyl)-1H-indazole-4-carboxamide] | 
 | 272 nM | NCc1ccc2nc(CNC(=O)c3cc(=O)n4ccccc4n3)cn2c1 [Compound 50, N-{[6-(aminomethyl)imidazo[1,2-a]pyridin-2-yl]methyl}-4-oxo-4H-pyrido[1,2-a]pyrimidine-2-carboxamide] | 
206 nM |  | COc1ccc(CNCc2ccc3nc(CNC(=O)c4cc(=O)n5ccccc5n4)cn3c2)cc1 [Compound 71, N-{[6-({[(4-methoxyphenyl)methyl]amino}methyl)imidazo [1,2-a]pyridin-2-yl]methyl}-4-oxo-4H-pyrido [1,2-a]pyrimidine-2-carboxamide] | 
 | 15800 nM | O=C(NCc1cn2cc(-c3ccn[nH]3)ccc2n1)c1cccc2[nH]ncc12 [Compound 35, N-{[6-(1H-pyrazol-5-yl)imidazo[1,2-a]pyridin-2-yl]methyl}-1H-indazole-4-carboxamide] | 
87.7 nM |  | O=C(NCc1cn2cc(CN3CCc4ccccc4C3)ccc2n1)c1cc(=O)n2ccccc2n1 [Compound 131, 4-oxo-N-({6-[(1,2,3,4-tetrahydroisoquinolin-2-yl)methyl]imidazo [1,2-a]pyridin-2-yl}methyl)-4H-pyrido [1,2-a]pyrimidine-2-carboxamide] | 
24.7 nM |  | O=C(NCc1cn2cc(CNCC3CCOC3)ccc2n1)c1cc(=O)n2ccccc2n1 (stereo not shown) [Compound 120, 4-oxo-N-{[6-({[(oxolan-3-yl)methyl]amino}methyl)imidazo[1,2-a]pyridin-2-yl]methyl}-4H-pyrido [1,2-a]pyrimidine-2-carboxamide] | 
 | 3910 nM | O=C(NCc1cn2cc(-c3cccc(Cl)c3)ccc2n1)c1cccc2[nH]ncc12 [Compound 36] | 
 |  | Cc1ccc2nc(C(C)(O)c3cnc(-c4cccc5[nH]ncc45)s3)cn2c1 (stereo not shown) [Example 335, 1-[2-(1H-indazol-4-yl)thiazol-5-yl]-1-(6-methylimidazo[1,2-a]pyridin-2-yl)ethanol] | IC50 (Compounds 266-351): 7290 nM
 | 2780 nM | O=C(NCc1cn2ccc(Br)cc2n1)c1cc(=O)n2ccccc2n1 [Compound 29, N-({7-bromoimidazo[1,2-a]pyridin-2-yl}methyl)-4-oxo-4H-pyrido[1,2-a]pyrimidine-2-carboxamide] | 
 |  | NC1(CNCc2ccc3nc(Cn4cc(-c5ccc(F)c6[nH]ncc56)nn4)cn3c2)CCCC1 [Example 309, 1-[[[2-[[4-(7-fluoro-1H-indazol-4-yl)triazol-1-yl]methyl]imidazo[1,2-a]pyridin-6-yl]methylamino]methyl]cyclopentanamine] | IC50 (Compounds 266-351): 120 nM
84.3 nM |  | O=C(NCc1cn2cc(CN3CCC(F)(F)CC3)ccc2n1)c1cc(=O)n2ccccc2n1 [Compound 129, N-({6-[(4,4-difluoropiperidin-1-yl)methyl]imidazo [1,2-a]pyridin-2-yl}methyl)-4-oxo-4H-pyrido[1,2-a]pyrimidine-2-carboxamide] | 

IC50 (Compounds 63-265) | IC50 (Compounds 1-62) | Structure (SMILES) | further results
229 nM |  | O=C(NCC1CCCCC1)c1ccc2nc(Cn3cc(-c4cccc5[nH]ncc45)nn3)cn2c1 [Example 249, N-(cyclohexylmethyl)-2-{[4-(1H-indazol-4-yl)-1H-1,2,3-triazol-1-yl]methyl}imidazo[1,2-a]pyridine-6-carboxamide] | 
 | 2060 nM | O=C(NCc1cn2ccccc2n1)c1cc(=O)n2ccccc2n1 [Compound 26] | 
10500 nM |  | CC(C)(C)C(=O)N1CCN(Cc2ccc3nc(CNC(=O)c4cc(=O)n5ccccc5n4)cn3c2)CC1 [Compound 166, N-[(6-{[4-(2,2-dimethylpropanoyl)piperazin-1-yl]methyl}imidazo[1,2-a]pyridin-2-yl)methyl]-4-oxo-4H-pyrido [1,2-a]pyrimidine-2-carboxamide] | 
18.3 nM |  | O=C(NCc1cn2cc(CNC(C3CC3)C3CC3)ccc2n1)c1cc(=O)n2ccccc2n1 [Compound 135, N-[(6-{[(dicyclopropyl-methyl)amino]methyl}imidazo [1,2-a]pyridin-2-yl)methyl]-4-oxo-4H-pyrido [1,2-a]pyrimidine-2-carboxamide] | 
16.3 nM |  | CC(C)CNCc1ccc2nc(CNC(=O)c3cc(=O)n4ccccc4n3)cn2c1 [Compound 151, N-[(6-{[(2-methylpropyl)amino]methyl}imidazo[1,2-a]pyridin-2-yl)methyl]-4-oxo-4H-pyrido[1,2-a] pyrimidine-2-carboxamide] | 
143 nM |  | O=C(NCc1cn2cc(CNCc3cccnc3)ccc2n1)c1cc(=O)n2ccccc2n1 [Compound 70, 4-oxo-N-{[6-({[(pyridin-3-yl)methyl]amino}methyl)imidazo [1,2-a]pyridin-2-yl]methyl}-4H-pyrido[1,2-a]pyrimidine-2-carboxamide] | 
 |  | CC(C)(C)CNCc1ccc2nc(Cn3cc(-c4cc(Cl)cc5[nH]ncc45)nn3)cn2c1 [Example 304, N-[[2-[[4-(6-chloro-1H-indazol-4-yl)triazol-1-yl]methyl]imidazo[1,2-a]pyridin-6-yl]methyl]-2,2-dimethyl-propan-1-amine] | IC50 (Compounds 266-351): 6.1 nM
99.1 nM |  | CC(C)(C)C1CCN(Cc2ccc3nc(CNC(=O)c4cc(=O)n5ccccc5n4)cn3c2)CC1 [Compound 161, N-({6-[(4-tert-butylpiperidin-1-yl)methyl]imidazo[1,2-a]pyridin-2-yl}methyl)-4-oxo-4H-pyrido[1,2-a]pyrimidine-2-carboxamide] | 
28.5 nM |  | CC1(NCc2ccc3nc(CNC(=O)c4cc(=O)n5ccccc5n4)cn3c2)CCCC1 [Compound 148, N-[(6-{[(1-methylcyclopentyl)amino]methyl}imidazo[1,2-a]pyridin-2-yl)methyl]-4-oxo-4H-pyrido [1,2-a]pyrimidine-2-carboxamide] | 
3440 nM |  | COc1cccc2c1OCC(c1ccc3nc(CNC(=O)c4cc(=O)n5ccccc5n4)cn3c1)NC2 (stereo not shown) [Example 234, N-{[6-(9-methoxy-2,3,4,5-tetrahydro-1,4-benzoxazepin-3-yl)imidazo[1,2-a]pyridin-2-yl]methyl}-4-oxo-4H-pyrido[1,2-a]pyrimidine-2-carboxamide] | 
 |  | OCc1ccc2nc(Cn3cc(-c4cc(F)cc5[nH]ncc45)nn3)cn2c1 [Example 317, [2-[[4-(6-fluoro-1H-indazol-4-yl)triazol-1-yl]methyl]imidazo[1,2-a]pyridin-6-yl]methanol] | IC50 (Compounds 266-351): 462 nM
 | 3060 nM | Cc1ccc2nc(CNC(=O)c3cc(=O)n4cc(Cl)ccc4n3)cn2c1 [Compound 21, 7-chloro-N-({6-methylimidazo[1,2-a]pyridin-2-yl}methyl)-4-oxo-4H-pyrido[1,2-a]pyrimidine-2-carboxamide] | 
177 nM |  | O=C(NCc1cn2cc(CN3CCC(Cc4ccccc4)CC3)ccc2n1)c1cc(=O)n2ccccc2n1 [Compound 155, N-({6-[(4-benzylpiperidin-1-yl)methyl]imidazo[1,2-a]pyridin-2-yl}methyl)-4-oxo-4H-pyrido [1,2-a]pyrimidine-2-carboxamide] | 
 | 6770 nM | COc1ccc2nc(CNC(=O)c3cc(=O)n4ccccc4n3)cn2c1 [Compound 24, N-({6-methoxyimidazo[1,2-a]pyridin-2-yl}methyl)-4-oxo-4H-pyrido[1,2-a]pyrimidine-2-carboxamide] | 
16.4 nM |  | CC(C)(C)CNCc1ccc2nc(CNC(=O)c3cc(=O)n4ccccc4n3)cn2c1 [Compound 113, N-[(6-{[(2,2-dimethylpropyl)amino]methyl}imidazo[1,2-a]pyridin-2-yl)methyl]-4-oxo-4H-pyrido[1,2-a] pyrimidine-2-carboxamide] | 
2170 nM |  | O=C(NCc1cn2ccc(CNCC3CCCCC3)cc2n1)c1cc(=O)n2ccccc2n1 [Compound 223, N-[(7-{[(cyclohexylmethyl)amino]methyl}imidazo[1,2-a]pyridin-2-yl)methyl]-4-oxo-4H-pyrido[1,2-a]pyrimidine-2-carboxamide] | 
8140 nM |  | CC(C)(C)OC(=O)NCCc1ccc2nc(CNC(=O)c3cc(=O)n4ccccc4n3)cn2c1 [Compound 67, tert-butyl N-(2-{2-[({4-oxo-4H-pyrido[1,2-a]pyrimidin-2-yl}formamido)methyl]imidazo [1,2-a]pyridin-6-yllethyl) carbamate] | 
